# Measurements: article PMC11971462, “Generation and validation of a novel multitarget small molecule in glioblastoma” (Cell Death & Disease, 2025)
# Tests used:
# [1] = target: T1, recombinant hMAO-A (Homo sapiens, UniProt P21397); test: MAO-A inhibition (Ampliflu Red/peroxidase, tyramine); assay type: biochemical; conditions: 10 µM compound; read-out: MAO-A inhibition percentage
# T1 construct: purchased Sigma-Aldrich
# Protocol: (§1) The inhibitory capacity of DDI199 on HDACs was studied as previously described. The capacity of DDI199 to inhibit MAOs was studied by mimicking the reaction occurring in cells. Briefly, inhibitor solution containing 10 µM of DDI199 or reference compound was incubated for 30 minutes at 37 °C together with the enzyme solution, containing either recombinant hMAO-A (Sigma-Aldrich) at 0.5 U/mL or hMAO-B (Sigma-Aldrich) at 1.5 U/mL. 200 U/mL horseradish peroxidase (Sigma-Aldrich), 20 mM Ampliflu Red (Sigma-Aldrich) and 100 mM tyramine hydrochloride (Sigma-Aldrich) were then added and absorbance at 570 nm was measured every 5 minutes for 30 minutes. Percentage of inhibition was estimated from these values.
# [2] = target: T2, recombinant hMAO-B (Homo sapiens, UniProt P27338); test: biochemical
# T2 construct: purchased Sigma-Aldrich
# Protocol: as §1
# [3] = target: T3, recombinant hAChE (Homo sapiens, UniProt P22303); test: AChE inhibition, Ellman's colorimetric method; assay type: biochemical; conditions: 10 µM compound; read-out: AChE inhibition percentage
# T3 construct: purchased Sigma-Aldrich
# Protocol: (§2) Similarly, Ellman’s colorimetric method was used to study the inhibitory capacity of the compound on ChEs. Enzyme solution containing either recombinant hAChE (Sigma-Aldrich) at 0.5 U/mL or hBChE (Sigma-Aldrich) at 0.25 U/mL was incubated with inhibitor solution containing 10 µM of DDI199 or reference compound and 0.3 mM of DTNB (Sigma-Aldrich) for 20 minutes at 37 °C. […] In addition, kinetic of enzyme inhibition was also studied by repeating the same protocol and using five different concentrations of the substrate and four different concentrations of the inhibitor. Results were represented in a Lineweaver-Burk plot using GraphPad Prism software, and the constant of inhibition (Ki) was estimated from the point at which the line cuts the x-axis at the secondary plot.
# [4] = target: T4, recombinant hBChE (Homo sapiens, UniProt P06276); test: BChE inhibition and kinetics, Ellman's colorimetric method; assay type: biochemical
# T4 construct: purchased Sigma-Aldrich
# Protocol: as §2
# [5] = tested on: gastric, pancreatic and lung cancer cells; test: MTT cell viability, summary for other tumor cells; assay type: cell-based; conditions: Homo sapiens, 72 h, summary statement
# Protocol: MTT assay was used to study cell viability. For that, cells were seeded at a density of 1.5 × 10^3 cells/well in 96-well plates, incubated overnight and then treated with increasing concentrations of DDI199. After 72 h of treatment, MTT absorbance was measured at 570 nm. GraphPad Prism software was used to analyze results and calculate IC50 values.
# [6] = tested on: GNS166 cells; test: EdU cell proliferation assay; assay type: cell-based, human; conditions: GNS166, 5 µM
# Protocol: Click-iT™ EdU Cell Proliferation Kit for Imaging (Invitrogen) was used according to the manufacturer’s instructions. Briefly, GNS166 cells were seeded and maintained overnight before DDI199 treatment. After 48 h, fresh culture medium containing 10 μM of EdU was added for 24 h and then, cells were fixed with 4% paraformaldehyde. Axio Observer 7 epifluorescence microscope was used to take pictures, which were later quantified in Qupath.
# [7] = tested on: GNS166 cells; test: Western blot of HDAC6, HDAC1, acetyl α-tubulin, acetyl H3; assay type: cell-based, human; conditions: U87-MG and glioma stem cells (GNS166)
# Protocol: (§3) Protein lysates were resolved using sodium dodecyl sulfate-polyacrylamide gel electrophoresis. Primary antibodies against HDAC1 (Ab109411, abcam), HDAC6 (7558S, Cell Signaling), acetyl H3 (9649, Cell Signaling), acetyl α-tubulin (Ab24610, abcam), acetylated-Lysine (9441, Cell Signaling) and β-actin (A5441, Sigma-Aldrich) were used. Membranes were then incubated with the corresponding anti-rabbit (7074S, Cell Signaling) or anti-mouse (7076S, Cell Signaling) secondary antibody conjugated to horseradish peroxidase (HRP), and NOVEX ECL Chemi Substrate (ThermoFisher) or SuperSignal West Femto Maximum Sensitivity Substrate (ThermoFisher) was used for protein detection by iBright imaging system.
# [8] = tested on: U87-MG cells; test: as above; assay type: cell-based, human
# Protocol: as §3
# [9] = tested on: U87-MG cells; test: Washout experiment after treatment; assay type: in vivo, athymic nude-Foxn1nu mice
# Protocol: (§4) For tumor growth experiments, 5 × 10^5 U87-MG cells were subcutaneously injected into two bottom flanks of athymic nude-Foxn1^nu mice, and once tumors reached a size of 25-50 mm^3, mice were sorted into groups taking into account gender and tumor size. Afterwards, mice were intratumorally treated with vehicle, SAHA 100 µM or DDI199 100 µM following a schedule of 5 days on and 2 days off. In combined treatment, mice were treated intraperitoneally with 0.5 mg/Kg of TMZ for 5 days and intratumorally following a schedule of 5 days on and 2 days off with vehicle, SAHA 100 µM or DDI199 100 µM. After 4 weeks of treatment, some mice were kept for washout experiment, while the rest were sacrificed and tumors were extracted for immunohistochemistry and to disaggregate for reinjection and oncosphere formation studies. For reinjection assays, 1.5 × 10^5 cells were subcutaneously injected and tumor size was periodically measured. Once tumors reached end-point criteria, they were extracted for immunohistochemical analysis. An external caliper was used for tumor size measurement and the tumor volume was estimated using the formula V = L · W^2 · 0.5 (where L is tumor length and W is the tumor width).
# [10] = tested on: U87-MG cells; test: Subcutaneous U87-MG tumor growth, combined treatment with TMZ; assay type: in vivo, athymic nude-Foxn1nu mice
# Protocol: as §4
# [11] = TMZ 0.5 mg/kg ip + DDI199 100 µM intratumoral
# T4 sequence (P06276 29-602): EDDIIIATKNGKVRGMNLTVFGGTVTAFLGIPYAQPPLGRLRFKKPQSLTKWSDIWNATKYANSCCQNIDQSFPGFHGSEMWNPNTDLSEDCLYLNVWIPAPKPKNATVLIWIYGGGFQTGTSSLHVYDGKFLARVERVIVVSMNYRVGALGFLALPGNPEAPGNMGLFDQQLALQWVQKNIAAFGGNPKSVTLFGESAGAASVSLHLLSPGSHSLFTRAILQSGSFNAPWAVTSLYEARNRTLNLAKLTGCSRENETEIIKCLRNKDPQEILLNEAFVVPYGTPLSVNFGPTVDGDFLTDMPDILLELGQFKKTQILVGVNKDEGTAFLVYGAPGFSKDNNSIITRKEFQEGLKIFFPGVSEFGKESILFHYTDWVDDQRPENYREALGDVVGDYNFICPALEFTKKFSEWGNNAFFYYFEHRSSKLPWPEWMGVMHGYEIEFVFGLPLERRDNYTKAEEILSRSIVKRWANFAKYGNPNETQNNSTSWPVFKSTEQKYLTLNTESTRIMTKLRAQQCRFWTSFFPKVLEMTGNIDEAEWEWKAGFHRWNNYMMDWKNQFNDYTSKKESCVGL
# T2 sequence (P27338 whole entry): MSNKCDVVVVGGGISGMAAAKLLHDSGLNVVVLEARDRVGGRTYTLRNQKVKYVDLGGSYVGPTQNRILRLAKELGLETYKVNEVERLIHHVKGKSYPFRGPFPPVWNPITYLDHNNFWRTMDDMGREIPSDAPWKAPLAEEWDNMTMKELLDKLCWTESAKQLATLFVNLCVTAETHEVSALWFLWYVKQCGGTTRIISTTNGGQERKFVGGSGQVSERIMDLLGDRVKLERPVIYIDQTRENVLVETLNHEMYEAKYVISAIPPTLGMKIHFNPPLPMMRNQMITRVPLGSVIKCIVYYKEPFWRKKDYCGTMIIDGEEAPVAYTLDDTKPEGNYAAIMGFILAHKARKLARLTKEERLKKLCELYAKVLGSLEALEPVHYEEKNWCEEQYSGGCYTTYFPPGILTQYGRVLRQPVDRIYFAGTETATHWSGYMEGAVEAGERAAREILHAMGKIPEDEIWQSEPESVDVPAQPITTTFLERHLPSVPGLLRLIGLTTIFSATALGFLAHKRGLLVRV
# T1 sequence (P21397 whole entry): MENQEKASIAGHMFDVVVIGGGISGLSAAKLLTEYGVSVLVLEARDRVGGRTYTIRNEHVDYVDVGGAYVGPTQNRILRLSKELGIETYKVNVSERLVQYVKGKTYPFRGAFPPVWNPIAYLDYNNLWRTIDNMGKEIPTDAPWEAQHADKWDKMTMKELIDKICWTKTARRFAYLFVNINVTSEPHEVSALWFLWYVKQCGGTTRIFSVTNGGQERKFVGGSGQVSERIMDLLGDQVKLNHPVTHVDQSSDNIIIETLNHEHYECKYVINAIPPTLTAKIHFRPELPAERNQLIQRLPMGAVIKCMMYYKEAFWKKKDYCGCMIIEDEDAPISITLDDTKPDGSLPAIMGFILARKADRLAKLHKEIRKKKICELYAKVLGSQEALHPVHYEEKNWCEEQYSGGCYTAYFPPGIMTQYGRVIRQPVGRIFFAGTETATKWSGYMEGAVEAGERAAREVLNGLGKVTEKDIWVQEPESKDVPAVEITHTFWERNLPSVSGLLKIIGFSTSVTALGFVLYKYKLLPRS
# T3 sequence (P22303 32-614): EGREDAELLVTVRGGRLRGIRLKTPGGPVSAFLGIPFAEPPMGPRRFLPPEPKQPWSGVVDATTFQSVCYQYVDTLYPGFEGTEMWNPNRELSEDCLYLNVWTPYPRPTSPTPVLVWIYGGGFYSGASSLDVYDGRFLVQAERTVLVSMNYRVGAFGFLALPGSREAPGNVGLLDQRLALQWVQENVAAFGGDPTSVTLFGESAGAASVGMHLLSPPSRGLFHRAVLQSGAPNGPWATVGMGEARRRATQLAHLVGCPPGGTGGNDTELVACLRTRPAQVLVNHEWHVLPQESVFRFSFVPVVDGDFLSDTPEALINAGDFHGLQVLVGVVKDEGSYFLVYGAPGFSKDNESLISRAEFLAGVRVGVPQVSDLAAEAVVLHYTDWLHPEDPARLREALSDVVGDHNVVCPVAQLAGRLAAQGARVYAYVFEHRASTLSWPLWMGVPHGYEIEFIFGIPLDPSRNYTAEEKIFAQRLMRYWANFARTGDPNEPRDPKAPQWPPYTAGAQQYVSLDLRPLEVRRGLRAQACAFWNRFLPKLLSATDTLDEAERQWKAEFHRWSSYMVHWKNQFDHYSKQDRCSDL
structure (smiles),measurement,setting,value
C#CCN(Cc1cc2cc(OCCCN3CCCCC3)ccc2n1S(=O)(=O)c1ccccc1)C(=O)CCCCCCC(=O)NO [DDI199],inhibition at 10 µM,[1],35%
same,inhibition at 10 µM,"[2]; 10 µM compound, read-out: MAO-B inhibition percentage",55%
same,IC50,[2]; read-out: MAO-B IC50,14900 nM
same,inhibition at 10 µM,[3],25%
same,IC50,[4],2540 nM
same,inhibition at 10 µM,"[4]; 10 µM compound, read-out: BChE inhibition percentage",75%
same,BChE type of inhibition,[4]; Lineweaver-Burk plot,mixed inhibition
same,Ki,[4]; from Lineweaver-Burk and secondary plots,870 nM
same,IC50,[5],< 3000 nM
same,EdU positive cells,[6],almost blocking completely
same,acetylated α-tubulin and acetylated H3 versus reference inhibitors,[7],higher acetylated α-tubulin and acetylated H3 increase than SAHA and Tubastatin A
same,acetylated H3 level,"[8]; U87-MG, 0.5, 1 and 10 µM",increased their levels with increasing concentrations
same,acetylated α-tubulin level,"[8]; U87-MG, 0.5, 1 and 10 µM",increased their levels with increasing concentrations
same,HDAC1 protein level,"[8]; U87-MG, western blot",decrease
same,HDAC6 protein level,"[8]; U87-MG, western blot",did not alter
same,"Survival in washout experiment, combined with TMZ","[9]; TMZ + DDI199 versus control, TMZ alone and TMZ plus SAHA",extended survival
same,Time to end-point volume after washout,"[9]; after 4 weeks treatment, controls 10 days",20 days
same,Survival in washout experiment,[9]; compared to controls and SAHA (p = 0.05),significantly longer survival
same,"Mean tumor volume, combined with TMZ","[10]; TMZ 0.5 mg/kg ip 5 days + 100 µM intratumoral, end-point, controls 600 mm^3",115 mm^3
same,"Reduction in final tumor volume versus TMZ + SAHA, combined with TMZ",[10]; [11],~70%
same,"Reduction in final tumor volume versus controls, combined with TMZ",[10]; [11],80%
same,"Reduction in tumor volume versus TMZ alone, combined with TMZ",[10]; [11],70%
same,"Reduction in tumor weight versus TMZ + SAHA, combined with TMZ",[10]; [11],47%
same,"Reduction in tumor weight versus TMZ alone, combined with TMZ",[10]; [11],65%
same,"Reduction in tumor weight versus controls, combined with TMZ",[10]; [11],65%
